Experiments:
Assay type in all cases: in vivo
corn (Zea mays) = experiment: Test A1 postemergence, corn; details: Postemergence
How it was run: (§1)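 Test compounds were formulated in a non-phytotoxic solvent mixture containing a surfactant. For preemergence, seeds sown in a loam soil–sand blend received a directed soil spray. For postemergence, potted plants in the same soil, 2 to 10 cm tall at the one- to two-leaf stage, were sprayed.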

[1] = system: ragweed (common ragweed, Ambrosia artemisiifolia); experiment: Test A1 postemergence, ragweed; details: for Ragweed plant response rating: postemergence; for Plant response rating, Ragweed: Postemergence
How it was run: (§2)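 Plants were grown in a loam soil/sand blend, with test chemicals formulated in a non-phytotoxic solvent mixture containing surfactant. Preemergence treatment (corn) was a directed soil spray at planting. Postemergence treatment was applied to plants 2 to 10 cm tall at the one- to two-leaf stage.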

[2] = system: Ryegrass, Italian (Italian ryegrass, Lolium multiflorum); experiment: Test A1 postemergence, Ryegrass, Italian; details: for Ryegrass, Italian plant response rating: postemergence; for Plant response rating, Ryegrass, Italian: Postemergence
How it was run: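 Herbicidal response was scored on plants treated either preemergence, by directed spray onto soil of a loam–sand blend after sowing, or postemergence on potted plants at the one- to two-leaf stage, 2–10 cm high. Test chemicals were carried in a non-phytotoxic solvent mix with surfactant.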

[3] = system: ragweed (common ragweed, Ambrosia artemisiifolia); experiment: Test A1 preemergence, ragweed
How it was run: as §1

[4] = system: Oat, Wild (wild oat, Avena fatua); experiment: Test A1 postemergence, Oat, Wild; details: for Oat, Wild plant response rating: postemergence; for Plant response rating, Oat, Wild: Postemergence
How it was run: as §2

[5] = 31 g ai/ha, 0 to 100 scale (0 no effect, 100 complete control), 10 days
[6] = 31 g ai/ha, 0 to 100 scale (0 no effect, 100 complete control)
[7] = 125 g ai/ha, 0 to 100 scale, 0 no effect, 100 complete control

SMILES	Plant response rating, Corn (corn (Zea mays); [5])	Plant response rating, Corn (corn (Zea mays); 125 g ai/ha, 0 to 100 scale)	Ragweed plant response rating [1, 6]	Plant response rating, Ragweed ([1]; 125 g ai/ha, 0 to 100 scale)	Ryegrass, Italian plant response rating [2, 6]	Plant response rating, Ryegrass, Italian ([2]; 125 g ai/ha, 0 to 100 scale)	Plant response rating, Ragweed [3, 6]	Plant response rating, Ragweed [3, 7]	Oat, Wild plant response rating [4, 6]	Plant response rating, Oat, Wild ([4]; 125 g ai/ha, 0 to 100 scale)	Plant response rating, Ragweed [1, 5]	Plant response rating, Ryegrass, Italian [2, 5]	Plant response rating, Oat, Wild [4, 5]
Cc1c(C(=O)N2C[C@@H](C)O[C@H](C)C2)cc(N(COC(=O)C(C)(C)C)S(=O)(=O)C(F)(F)F)c(C)c1C (relative stereo) [Compound 373]	0	40	50	80	0	30	50	50	0	10			
CCOC(=O)N(c1cc(C(=O)N2C[C@@H](C)O[C@H](C)C2)c(C)c(C)c1C)S(=O)(=O)C(F)(F)F (relative stereo) [Compound 374]	60	70	60	80	0	50	0	70	0	10			
Cc1c(NS(=O)(=O)C(F)(F)F)cc(C(=O)N2CCSCC2)c(C)c1C [Compound 283]	0	0		80		40	0	40		0	30	0	0
Cc1c(C(=O)N2CCSCC2)cc(N(COC(=O)C(C)(C)C)S(=O)(=O)C(F)(F)F)c(C)c1C [Compound 285]	0	0		90		0	0	10		10	20	0	0
CCOC(=O)N(c1cc(C(=O)N2CCSCC2)c(C)c(C)c1C)S(=O)(=O)C(F)(F)F [Compound 286]	0	0		40		0	0	10		0	0	0	0
COC1CCN(C(=O)c2cc(N(COC(=O)C(C)(C)C)S(=O)(=O)C(F)(F)F)c(C)c(C)c2C)CC1 [Compound 370]	0	90	50	70	0	0	0	70	0	0			
C#CCN(C)C(=O)c1cc(N(COC(=O)C(C)(C)C)S(=O)(=O)C(F)(F)F)c(C)c(C)c1C [Compound 371]	60	90	40	70	20	80	40	90	0	0			
Cc1cc(C)c(C2=NOC3OCCCC23)cc1NS(=O)(=O)C(F)(F)F (stereo not shown) [Compound 372]	20	50	40	80	0	50	0	70	0	10			
Cc1ccc(C2=NOC3CCCC23)cc1NS(=O)(=O)C(F)(F)F (stereo not shown) [Compound 377]	0	0	20	30	0	0	0	0	0	0			
CCOC(=O)N(c1cc(C2=NOC3CCCC23)c(CC)cc1C)S(=O)(=O)C(F)(F)F (stereo not shown) [Compound 379]	0	0	20	40	0	0	0	0	0	20			
